Patent US20100317733A1, “USE OF CIS-EPOXYEICOSANTRIENOIC ACIDS AND INHIBITORS OF SOLUBLE EPOXIDE HYDROLASE TO REDUCE PULMONARY INFILTRATION BY NEUTROPHILS” (THE REGENTS OF THE UNIVERSITY OF CALIFORNIA, priority 2004, published 2010)
Entries after “also recorded” stand apart in the source; their conditions may differ.

Tests used:
[1] = Metabolic stability (stated, no method)
sEH = target: T1, sEH (Homo sapiens, UniProt P34913); assay: Inhibition of soluble epoxide hydrolase (sEH); assay type: biochemical
T1 sequence (P34913 1-555): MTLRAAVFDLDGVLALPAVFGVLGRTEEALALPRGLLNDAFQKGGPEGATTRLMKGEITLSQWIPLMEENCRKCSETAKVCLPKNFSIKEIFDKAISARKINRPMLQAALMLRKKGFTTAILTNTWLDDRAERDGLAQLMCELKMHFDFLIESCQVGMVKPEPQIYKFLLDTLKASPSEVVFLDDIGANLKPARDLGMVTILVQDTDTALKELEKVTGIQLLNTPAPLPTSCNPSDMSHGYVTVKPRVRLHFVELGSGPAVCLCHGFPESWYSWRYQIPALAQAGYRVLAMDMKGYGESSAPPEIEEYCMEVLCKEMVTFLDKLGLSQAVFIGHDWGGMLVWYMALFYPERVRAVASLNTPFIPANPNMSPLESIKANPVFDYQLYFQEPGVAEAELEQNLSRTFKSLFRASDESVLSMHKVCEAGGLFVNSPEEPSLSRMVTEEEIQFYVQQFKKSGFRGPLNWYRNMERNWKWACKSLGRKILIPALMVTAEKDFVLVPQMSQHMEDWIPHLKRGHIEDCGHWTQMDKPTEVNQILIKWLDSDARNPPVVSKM
Description: The enzyme also can be detected based on the binding of specific ligands to the catalytic site which either immobilize the enzyme or label it with a probe such as dansyl, fluoracein, luciferase, green fluorescent protein or other reagent.
The assays are normally carried out with a recombinant enzyme following affinity purification.

[2] = system: tobacco smoke-induced inflammation in the lungs of rats; conditions: Smith 2002; cited from earlier work
[3] = system: cells in BAL from rats exposed to tobacco smoke; assay: Bronchoalveolar lavage (BAL) cell counts and differentials in rats exposed to tobacco smoke for 3 days; assay type: in vivo, SH rats; conditions: for % Eosinophils / % Lymphocytes / % Macrophages / % Neutrophils: cell differential in BAL, 3 days, mean ± SE (n = 4)
Description: Animals. Healthy, 11-week-old male spontaneously hypertensive (“SH”) (SHR/NCrlBR) rats (derived from WKY rats by phenotypic segregation of the hypertensive trait and inbreeding) were purchased from Charles River Laboratories (Portage, Mich.) and quarantined for 1 week prior to exposure to tobacco smoke. Animals were handled in accordance with standards established by the U.S. Animal Welfare Acts set forth in National Institutes of Health guidelines and the University of California, Davis Animal Care and Use Committee. The rats were housed in plastic cages with TEK-Chip pelleted paper bedding (Harlan Teklad, Madison, Wis.) and maintained on a 12 hour light/12 hour dark cycle. All animals had access to water and Laboratory Rodent Diet 5001 purchased from LabDiet (Brentwood, Mo.) ad libitum before, during and after exposures.
Subcutaneous Implantation of EETs for Tobacco Smoke Exposures. Wax formulations containing EETs were implanted subcutaneously 1 day prior to onset of exposure to tobacco smoke. Animals were implanted with the EETs formulation on the day before the first day of exposure. Four animals from the control group and four animals from the tobacco smoke-exposed group were implanted with the EETs formulation. The approach of a single subcutaneous implantation for the 3-day study was selected to minimize stress to animals from anesthesia.
Subcutaneous injection of AUDA-nBE for Tobacco Smoke Exposures. AUDA-nBE (7 mg/1 ml corn oil) was subcutaneously administered in SH rats at a dose of 10 mg/kg bodyweight. The total volume injected was 0.36 to 0.46 ml. Animals were injected with AUDA-nBE each day prior to exposure. Doses of AUDA-nBE used in this study were selected based on results from preliminary pharmacokinetic studies in mice and rats. These doses were selected to provide optimal efficacy and minimal toxicity over a three-day period. Four animals from the control group and four animals from the tobacco smoke-exposed group were injected with AUDA-nBE. Four animals with EETs implants from the control group and four animals with EETs implants from the tobacco smoke-exposed group were injected with AUDA-nBE. In addition, four control animals and four tobacco smoke-exposed animals were injected with corn oil using the same protocol as the AUDA-nBE -injected animals.
Tobacco Smoke Exposure. Rats were exposed to a mixture of sidestream and mainstream cigarette smoke in a smoking apparatus (Teague, S. V. et al., Inhal. Toxicol. 6:79-93 (1994)). The cigarettes were humidified 2R4F research cigarettes (Tobacco Health Research Institute; Lexington, Ky.). An automatic metered puffer was used to smoke the cigarettes under Federal Trade Commission conditions (35 ml puff, 2 sec duration, 1 puff per min). The smoke was collected in a chimney, diluted with filtered air, and delivered to whole-body exposure chambers. The exposures were characterized for three major constituents of cigarette smoke; nicotine, carbon monoxide, and total suspended particulates (TSP). […] Carbon monoxide was measured every 30 minutes, TSP every 2 hours, and nicotine once per day (approximately midway through the exposure period).
Bronchoalveolar Lavage. Established protocols were followed for bronchoalveolar lavage (BAL) of animals (Gossart, S. et al., J. Immunol. 156:1540-1548 (1996)). Eighteen hours after the last exposure to tobacco smoke, animals were anesthetized with an overdose of sodium pentobarbital. The trachea was cannulated and the lung lavaged with one aliquot of Ca^2+/Mg^2+-free phosphate buffered saline (PBS, pH 7.4). The volume of the aliquot was equal to 35 ml/kg body weight (approximately 90% of total lung capacity). The aliquot was instilled into the lungs three times before final collection. The BAL fluid (BALF) was immediately centrifuged at 250×g for 10 min at 4° C. to remove cells. The cell pellet was then resuspended in PBS and the cells counted with a hemocytometer. […]

[4] = Pharmacokinetics in SH rats following subcutaneous administration; assay type: in vivo
Description: Equipment. LC-MS-MS analysis was performed using a Micromass Quattro Ultima triple quadrupole tandem mass spectrometer (Micromass, Manchester, UK) equipped with atomospheric pressure ionization source [atomospheric z-spray pressure chemical ionization (APcI) or electrospray ionization (ESI) interface]. The HPLC system consisted of a Waters model 2790 separations module (Waters Corporation, Milford, Mass.) including an autosampler with refrigerated sample compartment and as inline vacuum degasser and Waters model 2487 dual λ absorbance detector (Waters Corporation). An XTerra™MS C18 column (30×2.1 mm I. D., 3.5 μm; Waters Corporation) was used with a flow rate of 0.3 mL/min at ambient temperature. Data were manipulated with MassLynx software (Ver. 4.0).
LC-MS-MS conditions. The ESI mass spectrometer was operated in the positive ion mode with a capillary voltage at 1.0 kV. Cone gas (N2) and desolvation gas (N2) were maintained at flow rates of 130 and 630 L/h, respectively. The source and the desolvation temperature were set at 100° C. and 300° C., respectively. […] Quantitative analysis was performed in the multiple reaction monitoring (MRM) mode with a dwell time of 300 ms. Ultra pure argon (99.9999%) was used as a collision gas at a pressure of 2.5 milli-torr for collision-induced dissociation (CID). […]
Pharmacokinetics analysis. […] AUCt was calculated by the linear/log trapezoidal rule.

CCCCCCCCCCCCNC(=O)NC12CC3CC(CC(C3)C1)C2 [ADU, N-Adamantyl-N′-dodecyl urea]
metabolic stability [1]: metabolically stable
activity as an inhibitor of sEH (sEH): particularly high activity

CCN1C=CN(CC)C1=C1C2=NC(=C(c3n(CC)cc[n+]3CC)C3=NC(=C(c4n(CC)cc[n+]4CC)c4ccc([n-]4)C(c4n(CC)cc[n+]4CC)=C4C=CC1=N4)C=C3)C=C2.[Cl-].[Cl-].[Cl-].[Cl-].[Cl-].[Mn+3] [AEOL 10150]
tobacco smoke-induced inflammation in the lungs [2]: decrease

CCCCOC(=O)CCCCCCCCCCCNC(=O)NC12CC3CC(CC(C3)C1)C2 [AUDA-nBE, 12-(3-adamantane-1-yl-ureido)-dodecanoic acid butyl ester]
% Eosinophils ([3]; filtered air): 0.15 ± 0.10%
% Lymphocytes ([3]; filtered air): 0.55 ± 0.15%
% Macrophages ([3]; filtered air): 92.1 ± 1.6%
% Neutrophils ([3]; filtered air): 7.3 ± 1.8%
% Eosinophils ([3]; tobacco smoke): 0.10 ± 0.10%
% Lymphocytes ([3]; tobacco smoke): 0.25 ± 0.10 %
% Macrophages ([3]; tobacco smoke): 62.9 ± 1.8 %
% Neutrophils ([3]; tobacco smoke): 36.8 ± 1.6 %
reduction in the number of neutrophils found in the lungs ([3]; rats, animal model of COPD (tobacco smoke), FIG. 4): ~55%
total number of cells in BALF ([3]; tobacco smoke 3 days, treatment before exposure, FIG. 2): significantly decreased
number of BALF macrophages ([3]; tobacco smoke 3 days, treatment before exposure, FIG. 3): significantly decreased; also recorded: significant reductions
number of BALF neutrophils ([3]; tobacco smoke 3 days, treatment before exposure, FIG. 4): significantly decreased; also recorded: significant reductions
number of BALF lymphocytes ([3]; tobacco smoke 3 days, treatment before exposure, FIG. 5): decreased the number of BALF lymphocytes to levels not significantly different from filtered air controls; also recorded: significant reductions
metabolism of the prodrug ([4]; subcutaneous administration): metabolized to AUDA

O=C(O)CCCCCCCCCCCNC(=O)NC12CC3CC(CC(C3)C1)C2 [AUDA]
half-life ([4]; blood, single subcutaneous dose of AUDA-nBE 10 mg/kg): 22 h
